Results reported in patent publication US20260355144A1, “METAP2 INHIBITORS FOR THE TREATMENT OF PULMONARY FIBROSIS” (SynDevRx , Inc., priority 2022, published 2026).

Columns and labels:
Format in all cases: in vivo, C57BL/6 mice
[1] = system: aged, male, bleomycin-treated mice; assay: Automated histopathological analysis of lung samples, Example 1
Description: (§1) Treatment: seven groups of mice were treated as put forth in Table A. Mice in groups 2-7 were challenged with bleomycin solution on Day 0 of the study by a single oropharyngeal installation of bleomycin solution such that the mice were given 1.5 U/kg based on the average body weight of the animals. On day 6 of the study, all mice were randomized based on body weight loss plus their PenH value (see below) as measured on Day 6.
(§2) Mice in treatment groups 1 and 2 were administered a vehicle control subcutaneously once every 4 days (Q4D) from day 7 to day 21. Mice in treatment group 3 were administered SDX-7320 subcutaneously Q4D from day 7 to day 21 at a dose of 8 mg/kg (i.e., 4 doses). Mice in treatment group 4 were administered pirfenidone orally (PO) twice a day (BID) from day 7 to day 21 at a dose of 100 mg/kg. […]
Histopathological Analysis: Automatic quantification of morphological features of pulmonary fibrosis were performed using MorphoQuant™ (Biocellvia, France), an automated AI-based digital pathology software for quantification, from the digitalized images (scans) of PSR-stained or antibody labeled lung sections. MorphoQuant™ uses principles of morphometric analysis to detect and quantify specific lung disease features from histological slides (Gilhodes et al. 2017; Michaudel, Fauconnier, et al. 2018). […]

[2] = system: aged, male, bleomycin-treated mice; assay: Wet lung weight (edema), Example 1; conditions: FIG. 6, day 21, compared to BLM-treated mice; SDX-7320 8 mg/kg SC Q4D; nintedanib 50 mg/kg PO QD; pirfenidone 100 mg/kg PO BID
Description: as §1
as §2, with “mg/kg. Mice in treatment group 5 were administered nintedanib orally (PO) once a day (QD) from day 7 to day 21 at a dose of 50 mg/kg.” for “mg/kg.”
Lung weight: Lungs were harvested, and the wet lung weights (signifying edema) were recorded.
Statistical Analysis: All parameters were analyzed in the same manner and results were expressed as means±SEM with Graph Pad Prism Software version 8.0 (San Diego, CA, USA). […]

[3] = system: aged, male, bleomycin-treated mice; assay: Respiratory function by whole-body plethysmography (PenH, respiratory rate), Example 1; conditions: FIG. 3, day 20 post BLM; SDX-7320 8 mg/kg SC Q4D; nintedanib 50 mg/kg PO QD; pirfenidone 100 mg/kg PO BID
Description: Animals: Aged, male C57BL/6 mice from Jackson Laboratories, 72 weeks old at the time of randomization were used in this study.
Mice in treatment groups 1 and 2 were administered a vehicle control subcutaneously once every 4 days (Q4D) from day 7 to day 21. […]
Respiratory Function: Respiratory function of the mice were measured using plethysmography. […] After the acclimatization period, the baseline functional respiratory parameters were measured by the whole-body plethysmograph (VivoFlow by SCIREQ) on Day 6 (before treatment introduction and process to the randomization), Days 13 and 20, post-BLM administration. […] The functional respiratory parameters analyzed include respiratory rate and PenH (pulmonary congestion index). […]

Compound | deposition of collagen in lung tissue ([1]; FIG. 22 and Table C, COL1A1, following exposure to bleomycin, SDX-7320 8 mg/kg SC Q4D, nintedanib 50 mg/kg PO QD) | COL1A1 area (%) ([1]; Table C/FIG. 22, aged male mice, bleomycin 1.5 U/kg oropharyngeal, treatment day 7 to 21, SDX 8 mg/kg SC Q4D, Nin 50 mg/kg PO QD, ab270993 antibody labeled) | lung weight (wet) [2] | pulmonary congestion (PenH) [3]
COC(=O)c1ccc2c(c1)NC(=O)/C2=C(\Nc1ccc(N(C)C(=O)CN2CCN(C)CC2)cc1)c1ccccc1 [nintedanib, Methyl (Z)-3-[[[4-[N-methyl-2-(4-methylpiperazin-1-yl)acetamido]phenyl]amino](phenyl)methylene]-2-oxoindoline-6-carboxylate] | almost no activity | 1.387 ± 1.638 | did not significantly reduce lung weight | increased the pulmonary congestion
Cc1ccc(=O)n(-c2ccccc2)c1 [pirfenidone, 5-Methyl-1-phenyl-1H-pyridin-2-one] |  |  | did not significantly reduce lung weight | 
